Test results: ChEMBL document CHEMBL1201862, “PubChem BioAssay data set” (2004)
Activity calls are given as the source filed them.

Assays:
Keap1/Nrf2 = Keap1/Nrf2 (Homo sapiens, UniProt Q14145); experiment: Keap1-Nrf2 protein-protein interaction inhibitors, dose response, biochemical, fluorescence polarization, cherry-picked samples (AID 588683)
HeLa = experiment: HeLa cell cytotoxicity, dose response, cytotoxicity control, 24 h, cherry-picked samples (AID 504726); format: functional, cell-based; conditions: Homo sapiens;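 further: potency for cytotoxicity as loss of luminescence signal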
ORF 73 = ORF 73 (Human herpesvirus 8, UniProt O40947); experiment: inhibitors of C-LANA binding to LBS DNA, dose response, biochemical, fluorescence polarization, cherry-picked samples (AID 504725); set-up: species or system Human gammaherpesvirus 8;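 further: fluorescence polarization of a labeled DNA duplex reporting LANA DNA binding; potency is for inhibitors that block LANA binding to the DNA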
[1] = target: T1, Eukaryotic translation initiation factor 2-alpha kinase 3 (Homo sapiens, UniProt Q9NZJ5); experiment: Counterscreen assay for PERK inhibitors: Dose response cell-based high throughput screening assay to measure inhibition of PERK at 6 hours. [Related pubchem assays: 1522, 1416 ]; format: functional
[2] = target: T1, Eukaryotic translation initiation factor 2-alpha kinase 3; experiment: Dose response cell-based high-throughput screening assay to measure PERK inhibition. [Related pubchem assays: 1416 ]; format: functional
[3] = target: Polyadenylate-binding protein 1 (Homo sapiens, UniProt P11940); experiment: PABP inhibition in translation initiation, SAR follow-up (AID 435018); format: functional
[4] = target: Eukaryotic translation initiation factor 4H (Homo sapiens, UniProt Q15056); experiment: eIF4H inhibition in translation initiation, SAR follow-up (AID 435011); format: functional
MDA-MB-435 = experiment: cells; format: functional, cell-based; conditions: Homo sapiens
cells [5] = format: functional, cell-based; conditions: PPC-1
[6] = cytotoxicity toward DRD oncogenic fibroblasts, dose response, cell-based, non-viral oncogenic, luminescence (AID 1934); format: functional; conditions: Homo sapiens
BJ [7] = experiment: cells; format: functional, cell-based; conditions: Homo sapiens
[8] = target: Cyclin-dependent kinase 5/CDK5 activator 1 (Homo sapiens, UniProt Q00535); experiment: CDK5/p35 kinase inhibitors, dose response, biochemical, cherry-picked samples, set 2 (AID 504545)
HEK293 = experiment: inhibitors of LMP1-driven NF-kB reporter, dose response, cell-based, HEK293, luciferase, cherry-pick (AID 588343); format: functional; conditions: Homo sapiens
BJ [9] = experiment: cytotoxicity toward BJ-TERT fibroblasts, dose response, cell-based, RAS-independent, luminescence (AID 1933); format: functional; conditions: Homo sapiens
BJ [10] = experiment: cytotoxicity toward BJ-TERT-LT-ST fibroblasts, dose response, cell-based, RAS-independent, luminescence (AID 1935); format: functional; conditions: Homo sapiens;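 further: BJ fibroblasts immortalized with TERT plus LT and ST oncogenes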
[11] = target: Luciferin 4-monooxygenase (Photinus pyralis, UniProt P08659); experiment: firefly luciferase enzyme inhibitors, dose response, biochemical, luminescence (AID 1891)
[12] = Luminescence Cell-Based Dose Confirmation HTS to Identify Inhibitors of Platelet Dense Granule Release. [Related pubchem assays: 1663 (Primary HTS), 1678 (Summary of Project)]; format: functional
[13] = inhibition of ADP-Glo detection reagents, dose response, artefact control for CDK5 inhibitor project, biochemical, luminescence, cherry-picked samples, set 2 (AID 504546); format: functional
BJ [14] = experiment: cytotoxicity toward Ras-transformed BJeLR fibroblasts, dose response, cell-based, alamar blue fluorescence, cherrypicked samples (AID 2631); format: functional; conditions: Homo sapiens;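 further: confirmatory dose-response assay in RAS-dependent BJ fibroblasts engineered with TERT, LT and ST, with cytotoxicity read by fluorescence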
[15] = target: Cystic fibrosis transmembrane conductance regulator/Golgi-associated PDZ and coiled-coil motif-containing protein (Homo sapiens, UniProt P13569+Q9HD26); experiment: CAL PDZ peptide-binding inhibitors, dose response, biochemical, fluorescence polarization, Cerulean-tagged CAL PDZ, cherry-picks (AID 504773)
[16] = HepG2 cell cytotoxicity, dose response, cytotoxicity control for Shn3 inhibitor project, CellTiter-Glo, cherry-picked (AID 624134); format: functional, cell-based
Vero [17] = experiment: cytotoxicity of synthesized analogs in Vero cells, SAR follow-up, cytotoxicity control for West Nile virus antiviral project, cell-based, set II (AID 2402); format: functional; conditions: Chlorocebus sabaeus
[18] = NIH-3T3 fibroblast cytotoxicity, dose response, cytotoxicity control, cell-based, fluorescence, Alamar Blue, secondary assay (AID 2327); format: functional;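 further: NIH-3T3 mouse fibroblasts cultured with fluconazole at 8 µg/mL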
Streptococcus = experiment: Group A Streptococcus viability loss, dose response, counter-screen for streptokinase expression inhibitor project, luminescence, BacTiterGlo (AID 1915); format: functional, organism-based;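 further: potency for reduction of bacterial viability or growth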
[19] = cytotoxicity toward NIH3T3 fibroblasts, dose response, counter-screen, cell-based, ATP luminescence, mouse fibroblasts (AID 2010); format: functional;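 further: cells exposed to compound for about 90 hours before reading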
[20] = control 3'UTR Renilla luciferase suppression, dose response, counter-screen for Shn3 inhibitor project, cell-based, Clone20-Shn3RL, cherry-picked (AID 624133); format: functional
INS1 = experiment: beta cell apoptosis inhibitors, cytokine rescue, dose response, luminescence, retest (AID 449756); format: functional, cell-based; conditions: Rattus norvegicus;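 further: cell death triggered by IL-1 beta plus TNF-alpha plus IFN-gamma mixture; protective hits raise ATP signal compared with cytokine alone wells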
cells [21] = format: functional, cell-based
Vero [22] = experiment: cytotoxicity of synthesized analogs in Vero 76, SAR follow-up, cytotoxicity control for West Nile virus antiviral project, Vero 76 cells (AID 2414); format: functional; conditions: Chlorocebus sabaeus
[23] = C. albicans growth with fluconazole, confirmation, fluorescence, retest (AID 2467); format: functional, cell-based
[24] = inhibitors of SNCA 5'UTR-driven reporter translation, confirmation, H4 neuroglioma cells, luminescence (AID 1988); format: functional, cell-based
Vero [25] = experiment: Vero E6 cell cytotoxicity, SAR follow-up, cytotoxicity control for West Nile virus antiviral project, synthesized analogs (AID 2244); format: functional; conditions: Chlorocebus sabaeus
[26] = tested on: Streptococcus sp. 'group A'; experiment: growth inhibition of control SK(-) GAS strain, dose response, counter-screen for streptokinase expression inhibitor project, luminescence, kanamycin, BacTiterGlo, confirmation (AID 1900); format: functional, organism-based
cells [27] = format: functional, cell-based; remark: listed apart in the source
[28] = inhibitors of intracellular T. cruzi replication, confirmation, NIH3T3 host cells, beta-gal luminescence (AID 2044); format: functional, cell-based;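 further: intracellular parasites grown in NIH/3T3 mouse fibroblasts as host cells; luminescent beta-galactosidase reporter signal from transgenic T. cruzi replicating inside host cells; inhibitors lower the luminescence signal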
[29] = Shn3 3'UTR reporter inhibitors, dose response, cell-based, Clone20 osteoblasts, firefly luciferase, cherry-picked (AID 624132); format: functional;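 further: firefly luciferase luminescence from reporter carrying the Shn3 3'UTR in osteoblasts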
[30] = inhibitors of firefly luciferase expression or activity, dose response, H4 neuroglioma cells, luminescence (AID 1990); format: functional, cell-based
Vero [31] = experiment: cells; format: functional; conditions: Chlorocebus sabaeus
[32] = A Cell Based Assay for the Identification of Probe candidate Compounds with Anti- Venezuelan Equine Encephalitis virus. [Related pubchem assays: 2409, 2419, 1621, 2238, 2405, 2024, 2065, 2402, 2414, 1635, 1650, 2244 ]; format: functional
[33] = Luminescence Cell-Based Dose Response HTS to Identify Inhibitors of 5'UTR Stem-Loop Driven Prion Protein mRNA Translation in H4 Neuroglioblastoma Cells. [Related pubchem assays: 1827 (Project Summary), 1813 (Primary HTS)]; format: functional

T1 sequence (Q9NZJ5 whole entry): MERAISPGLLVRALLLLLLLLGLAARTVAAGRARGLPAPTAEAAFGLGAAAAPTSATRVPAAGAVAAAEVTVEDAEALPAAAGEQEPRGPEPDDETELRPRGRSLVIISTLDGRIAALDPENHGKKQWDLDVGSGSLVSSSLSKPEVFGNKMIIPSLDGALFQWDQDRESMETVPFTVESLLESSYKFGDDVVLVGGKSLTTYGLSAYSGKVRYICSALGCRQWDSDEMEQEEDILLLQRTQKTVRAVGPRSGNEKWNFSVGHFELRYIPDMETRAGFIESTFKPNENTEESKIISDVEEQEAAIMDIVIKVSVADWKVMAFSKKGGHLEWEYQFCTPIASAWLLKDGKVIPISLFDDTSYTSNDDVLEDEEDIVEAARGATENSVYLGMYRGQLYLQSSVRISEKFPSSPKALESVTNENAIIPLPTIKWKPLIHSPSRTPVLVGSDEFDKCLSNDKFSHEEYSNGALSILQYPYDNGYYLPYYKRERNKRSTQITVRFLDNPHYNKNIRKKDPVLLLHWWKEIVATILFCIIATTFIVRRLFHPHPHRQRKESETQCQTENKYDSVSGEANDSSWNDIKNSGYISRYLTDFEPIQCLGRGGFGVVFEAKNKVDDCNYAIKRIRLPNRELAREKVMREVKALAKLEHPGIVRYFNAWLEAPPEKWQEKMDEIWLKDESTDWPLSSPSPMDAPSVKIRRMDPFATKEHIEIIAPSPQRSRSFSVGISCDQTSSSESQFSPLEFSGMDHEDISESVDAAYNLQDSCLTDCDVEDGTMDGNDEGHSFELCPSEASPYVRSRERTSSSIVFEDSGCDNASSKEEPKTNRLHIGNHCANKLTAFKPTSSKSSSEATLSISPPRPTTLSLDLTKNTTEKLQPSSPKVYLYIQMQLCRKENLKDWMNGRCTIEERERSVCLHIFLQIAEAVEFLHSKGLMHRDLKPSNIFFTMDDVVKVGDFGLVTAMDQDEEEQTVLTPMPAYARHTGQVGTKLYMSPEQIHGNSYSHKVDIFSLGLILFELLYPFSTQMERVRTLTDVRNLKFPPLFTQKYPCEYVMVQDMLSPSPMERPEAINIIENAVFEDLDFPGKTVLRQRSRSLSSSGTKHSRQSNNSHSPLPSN
Sequence of Keap1/Nrf2 (Q16236 whole entry): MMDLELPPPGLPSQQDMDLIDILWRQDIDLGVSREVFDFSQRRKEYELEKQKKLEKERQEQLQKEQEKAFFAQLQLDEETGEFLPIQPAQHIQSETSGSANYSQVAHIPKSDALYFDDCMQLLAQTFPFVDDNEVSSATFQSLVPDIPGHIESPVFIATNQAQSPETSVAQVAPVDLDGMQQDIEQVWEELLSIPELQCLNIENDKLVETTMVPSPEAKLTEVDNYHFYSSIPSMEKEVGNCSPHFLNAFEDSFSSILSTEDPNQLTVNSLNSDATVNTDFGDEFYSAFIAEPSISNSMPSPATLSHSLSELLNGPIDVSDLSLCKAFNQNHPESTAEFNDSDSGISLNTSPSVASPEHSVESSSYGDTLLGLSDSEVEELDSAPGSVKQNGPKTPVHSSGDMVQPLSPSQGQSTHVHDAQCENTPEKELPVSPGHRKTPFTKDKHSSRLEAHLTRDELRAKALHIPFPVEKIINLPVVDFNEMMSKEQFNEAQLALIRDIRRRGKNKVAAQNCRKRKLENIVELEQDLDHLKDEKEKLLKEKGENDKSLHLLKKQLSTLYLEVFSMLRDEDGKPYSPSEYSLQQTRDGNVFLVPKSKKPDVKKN
Sequence of Keap1/Nrf2 (Q14145 whole entry): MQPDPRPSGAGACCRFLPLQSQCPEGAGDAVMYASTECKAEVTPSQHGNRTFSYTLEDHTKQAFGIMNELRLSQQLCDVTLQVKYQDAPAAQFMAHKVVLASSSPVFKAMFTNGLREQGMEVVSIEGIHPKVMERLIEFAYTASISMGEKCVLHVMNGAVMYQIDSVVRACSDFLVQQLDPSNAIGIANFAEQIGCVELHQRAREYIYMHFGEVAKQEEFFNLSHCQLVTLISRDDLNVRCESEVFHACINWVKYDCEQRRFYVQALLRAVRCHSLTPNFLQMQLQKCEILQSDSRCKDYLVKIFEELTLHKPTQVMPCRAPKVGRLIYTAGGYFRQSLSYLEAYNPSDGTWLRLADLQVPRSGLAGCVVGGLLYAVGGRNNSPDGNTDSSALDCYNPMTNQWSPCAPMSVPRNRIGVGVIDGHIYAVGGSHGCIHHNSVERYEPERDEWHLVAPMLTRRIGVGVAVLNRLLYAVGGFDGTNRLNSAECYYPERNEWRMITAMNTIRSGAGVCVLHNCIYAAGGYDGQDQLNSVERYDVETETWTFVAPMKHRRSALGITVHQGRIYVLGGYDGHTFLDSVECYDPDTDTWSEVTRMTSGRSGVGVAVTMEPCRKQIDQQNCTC
Sequence of Cyclin-dependent kinase 5/CDK5 activator 1 (Q00535 whole entry): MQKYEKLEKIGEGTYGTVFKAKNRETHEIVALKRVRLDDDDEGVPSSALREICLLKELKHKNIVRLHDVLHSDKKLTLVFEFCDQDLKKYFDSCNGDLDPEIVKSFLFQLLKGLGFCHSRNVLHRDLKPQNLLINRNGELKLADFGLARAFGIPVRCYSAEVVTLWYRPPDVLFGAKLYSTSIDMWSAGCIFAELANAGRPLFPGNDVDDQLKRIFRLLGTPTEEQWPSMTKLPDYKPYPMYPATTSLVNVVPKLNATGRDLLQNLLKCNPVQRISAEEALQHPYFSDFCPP
Sequence of Cyclin-dependent kinase 5/CDK5 activator 1 (Q15078 whole entry, further chain): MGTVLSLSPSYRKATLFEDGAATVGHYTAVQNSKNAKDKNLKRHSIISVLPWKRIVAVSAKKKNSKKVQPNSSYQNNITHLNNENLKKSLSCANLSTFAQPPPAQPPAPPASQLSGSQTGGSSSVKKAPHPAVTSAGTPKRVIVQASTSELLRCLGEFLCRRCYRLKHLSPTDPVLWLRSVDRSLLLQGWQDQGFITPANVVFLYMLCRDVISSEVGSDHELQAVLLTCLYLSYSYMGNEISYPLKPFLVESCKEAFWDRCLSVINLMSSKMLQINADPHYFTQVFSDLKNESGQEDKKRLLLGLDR
Sequence of ORF 73 (O40947 whole entry): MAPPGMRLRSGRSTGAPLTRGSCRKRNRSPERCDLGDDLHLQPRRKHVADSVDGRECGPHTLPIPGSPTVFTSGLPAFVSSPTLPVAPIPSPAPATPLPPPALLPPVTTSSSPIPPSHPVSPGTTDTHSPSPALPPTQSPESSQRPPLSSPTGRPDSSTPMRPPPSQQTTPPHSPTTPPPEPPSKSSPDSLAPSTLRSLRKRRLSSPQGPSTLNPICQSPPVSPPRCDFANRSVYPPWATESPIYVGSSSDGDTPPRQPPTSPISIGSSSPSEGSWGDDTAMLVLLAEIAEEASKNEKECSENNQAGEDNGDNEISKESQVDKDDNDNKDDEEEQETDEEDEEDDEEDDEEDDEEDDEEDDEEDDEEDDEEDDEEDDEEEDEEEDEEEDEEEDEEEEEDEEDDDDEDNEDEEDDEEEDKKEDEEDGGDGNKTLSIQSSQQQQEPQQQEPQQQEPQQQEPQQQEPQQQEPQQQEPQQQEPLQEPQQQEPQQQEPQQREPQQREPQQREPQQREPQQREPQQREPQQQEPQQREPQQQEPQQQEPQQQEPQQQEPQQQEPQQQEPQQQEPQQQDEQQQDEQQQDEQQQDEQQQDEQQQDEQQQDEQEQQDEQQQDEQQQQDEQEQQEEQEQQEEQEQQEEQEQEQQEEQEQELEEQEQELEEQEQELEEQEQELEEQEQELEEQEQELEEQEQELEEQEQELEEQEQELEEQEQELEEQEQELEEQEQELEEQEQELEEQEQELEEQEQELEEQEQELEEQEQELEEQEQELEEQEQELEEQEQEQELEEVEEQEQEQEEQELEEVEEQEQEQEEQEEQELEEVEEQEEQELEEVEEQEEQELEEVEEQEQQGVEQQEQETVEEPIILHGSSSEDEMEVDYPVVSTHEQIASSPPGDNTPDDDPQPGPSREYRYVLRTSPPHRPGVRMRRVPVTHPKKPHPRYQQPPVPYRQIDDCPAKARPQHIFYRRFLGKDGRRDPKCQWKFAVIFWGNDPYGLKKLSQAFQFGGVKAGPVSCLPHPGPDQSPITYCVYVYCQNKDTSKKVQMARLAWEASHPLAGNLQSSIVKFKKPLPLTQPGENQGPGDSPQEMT
Sequence of Polyadenylate-binding protein 1 (P11940 whole entry): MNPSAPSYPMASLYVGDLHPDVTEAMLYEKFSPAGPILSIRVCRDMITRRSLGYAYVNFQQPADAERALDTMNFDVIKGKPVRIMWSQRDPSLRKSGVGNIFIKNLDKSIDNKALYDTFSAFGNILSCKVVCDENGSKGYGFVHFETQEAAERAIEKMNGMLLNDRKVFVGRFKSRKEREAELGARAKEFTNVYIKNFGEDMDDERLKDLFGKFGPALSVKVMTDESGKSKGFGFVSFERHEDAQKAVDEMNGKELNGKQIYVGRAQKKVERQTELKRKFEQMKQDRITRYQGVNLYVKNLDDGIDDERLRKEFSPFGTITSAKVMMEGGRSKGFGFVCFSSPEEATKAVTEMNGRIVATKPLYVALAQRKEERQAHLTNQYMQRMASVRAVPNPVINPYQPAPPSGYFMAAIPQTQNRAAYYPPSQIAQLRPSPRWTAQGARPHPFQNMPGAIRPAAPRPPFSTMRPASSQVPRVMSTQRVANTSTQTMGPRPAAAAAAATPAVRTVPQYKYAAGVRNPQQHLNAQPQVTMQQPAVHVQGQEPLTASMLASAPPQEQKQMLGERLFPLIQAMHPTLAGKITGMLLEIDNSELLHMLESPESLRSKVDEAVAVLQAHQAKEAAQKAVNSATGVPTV

Cc1cccc(N2C(=O)c3cccc4c(N(C)CCO)ccc(c34)C2=O)c1
AC50 (Keap1/Nrf2): 22.6 µM (active) | AC50 (HeLa): 324 µM (active) | AC50 (ORF 73): 204 µM (active)

COC(=O)c1ccc(OCCOc2ccc(C(=O)OC)cc2)cc1
EC50 [1]: > 55.7 µM (not active) | EC50 [2]: > 55.7 µM (not active)

COc1cc(/C=N/NC(=O)c2ccccc2O)ccc1OCC(=O)Nc1ccc([N+](=O)[O-])cc1
IC50 [3]: > 100 µM (inactive) | IC50 [4]: > 100 µM (inactive)

CCSc1nc(O)cc(-c2ccccc2)n1
IC50 (MDA-MB-435): > 10 µM (inactive) | IC50 (cells [5]): > 10 µM (inactive)

CCN(CC)C(=O)c1ccc(NC(=O)Nc2ccccc2F)cc1
EC50 [6]: 3.5 µM (active) | EC50 (BJ [7]): 4.99 µM (active) | AC50 [8]: 21.1 µM (active) | AC50 (HEK293): 2.08 µM (active) | EC50 (BJ [9]): 4.45 µM (active) | EC50 (BJ [10]): 9.1 µM (inconclusive) | EC50 [11]: 0.225 µM (active) | EC50 [12]: < 0.701 µM (active) | AC50 [13]: 51.6 µM (active) | EC50 (BJ [14]): > 133 µM (inactive)

O=C1C=C(c2ccccc2)C(c2ccccc2)C1 (centres undefined)
AC50 [15]: 17 µM (active)

Oc1ccccc1C(Nc1nccs1)c1ccc2cccnc2c1O (centres undefined)
AC50 [16]: 6.74 µM (active) | CC50 (Vero [17]): 7.2 µM (active) | EC50 [18]: 6.03 µM (active) | EC50 (Streptococcus): 6.55 µM (active) | EC50 [19]: 9.11 µM (active) | AC50 [20]: 2.47 µM (active) | EC50 [6]: 10.7 µM (active) | AC50 (INS1): 1.95 µM (active) | EC50 (cells [21]): 12.5 µM (active) | CC50 (Vero [22]): 21.6 µM (active) | EC50 (BJ [7]): 13.9 µM (active) | EC50 [23]: 1.4 µM (active) | EC50 [24]: 9.59 µM (active) | CC50 (Vero [25]): 8 µM (active) | EC50 (BJ [9]): 8.13 µM (inconclusive) | EC50 (BJ [10]): 9.11 µM (active) | EC50 [26]: 2.3 µM (active) | EC50 (cells [27]): > 350 µM (not active) | EC50 [28]: 0.832 µM (active) | AC50 [29]: 1.13 µM (active) | EC50 [30]: 11.9 µM (active) | CC50 (Vero [31]): 10.3 µM (active) | IC50 [32]: 20.9 µM (active) | EC50 [33]: 8.46 µM (active)
